Assays:
Cabozantinib = compound: COc1cc2nccc(Oc3ccc(NC(=O)C4(C(=O)Nc5ccc(F)cc5)CC4)cc3)c2cc1OC [Cabozantinib]
Paclitaxel = compound: CC(=O)O[C@H]1C(=O)[C@@]2(C)[C@H]([C@H](OC(=O)c3ccccc3)[C@]3(O)C[C@H](OC(=O)[C@H](O)[C@@H](NC(=O)c4ccccc4)c4ccccc4)C(C)=C1C3(C)C)[C@]1(OC(C)=O)CO[C@@H]1C[C@@H]2O [Paclitaxel]
[1] = compound: CCN1CCN(Cc2ccc(Nc3ncc(F)c(-c4cc(F)c5nc(C)n(C(C)C)c5c4)n3)nc2)CC1
BSJ-03-123 = compound: CC(=O)c1c(C)c2cnc(Nc3ccc(N4CCN(CCOCCOCCOCCNC(=O)COc5cccc6c5C(=O)N(C5CCC(=O)NC5=O)C6=O)CC4)cn3)nc2n(C2CCCC2)c1=O [BSJ-03-123]
Vorinostat = compound: O=C(CCCCCCC(=O)Nc1ccccc1)NO [Vorinostat]
AZD5363 = compound: NC1(C(=O)N[C@@H](CCO)c2ccc(Cl)cc2)CCN(c2nc[nH]c3nccc2-3)CC1 [AZD5363]
Buparlisib/NVP-BKM120 = compound: Nc1cc(C(F)(F)F)c(-c2cc(N3CCOCC3)nc(N3CCOCC3)n2)cn1 [Buparlisib/NVP-BKM120]
SHP099 = compound: CC1(CCN(CC1)C2=CN=C(C(=N2)N)C3=C(C(=CC=C3)Cl)Cl)N [SHP099]
[2] = compound: CCc1cnn2c(NCc3ccc[n+]([O-])c3)cc(N3CCCC[C@H]3CCO)nc12
LEE011/Ribociclib = compound: CN(C)C(=O)c1cc2cnc(Nc3ccc(N4CCNCC4)cn3)nc2n1C1CCCC1 [LEE011/Ribociclib]; experiment: GR value, 72 h; higher = faster growth (1 = untreated, <0 = killing);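 further: breast cancer and non-malignant breast epithelial lines, nine half-log doses, viable cells counted by Hoechst and LIVE/DEAD dye imaging versus time-zero plates and DMSO controls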
THZ1 = compound: CN(C)C/C=C/C(=O)Nc1ccc(C(=O)Nc2cccc(Nc3ncc(Cl)c(-c4c[nH]c5ccccc45)n3)c2)cc1 [THZ1]; experiment: as above
[3] = compound: CCN1CCN(Cc2ccc(Nc3ncc(F)c(-c4cc(F)c5nc(C)n(C(C)C)c5c4)n3)nc2)CC1; experiment: as above
[4] = compound: CC(=O)c1c(C)c2cnc(Nc3ccc(N4CCNCC4)cn3)nc2n(C2CCCC2)c1=O; experiment: as above
THZ531 = compound: CN(C)C/C=C/C(=O)Nc1ccc(C(=O)N2CCC[C@@H](Nc3ncc(Cl)c(-c4c[nH]c5ccccc45)n3)C2)cc1 [THZ531]; experiment: as above
YKL-5-124 = compound: C=CC(=O)Nc1ccc(C(=O)Nc2[nH]nc3c2CN(C(=O)N[C@H](CN(C)C)c2ccccc2)C3(C)C)cc1 [YKL-5-124]; experiment: as above
Flavopiridol = compound: CN1CC[C@H](c2c(O)cc(O)c3c(=O)cc(-c4ccccc4Cl)oc23)[C@H](O)C1 [Flavopiridol]; experiment: as above
[5] = compound: CCc1cnn2c(NCc3ccc[n+]([O-])c3)cc(N3CCCC[C@H]3CCO)nc12; experiment: as above
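Wherever GR50, 72 h is given: breast cancer and non-malignant breast epithelial cell lines, Deep Dye Drop or Dye Drop imaging, nine half-log doses, GR normalized to time-zero plates and DMSO-only controls.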

With SUM185PE the “GR50, 72 h” value (Cabozantinib) was 1.71 µM, the “GR50, 72 h” value (Paclitaxel) was 0.00463 µM and the “GR50, 72 h” value [1] was 9.37 µM. For the same cell line, the “GR50, 72 h” value (BSJ-03-123) was over 10 µM, the “GR50, 72 h” value (Vorinostat) was 6.86 µM and the “GR50, 72 h” value (AZD5363) was 8.7 µM. For the same cell line, the “GR50, 72 h” value (Buparlisib/NVP-BKM120) was 0.659 µM, the “GR50, 72 h” value (SHP099) was over 10 µM and the “GR50, 72 h” value [2] was 0.0261 µM. For the same cell line, the GR value (LEE011/Ribociclib; 0.001 µM) was 0.867 GR, the GR value (LEE011/Ribociclib; 0.003162 µM) was 1.04 GR and the GR value (LEE011/Ribociclib; 0.01 µM) was 0.798 GR. It also gave a GR value (LEE011/Ribociclib; 0.03162 µM) of 0.942 GR, a GR value (LEE011/Ribociclib; 0.1 µM) of 1 GR and a GR value (LEE011/Ribociclib; 0.3162 µM) of 0.948 GR. For the same cell line, the GR value (LEE011/Ribociclib; 1 µM) was 0.913 GR, the GR value (LEE011/Ribociclib; 3.162 µM) was 0.832 GR and the GR value (LEE011/Ribociclib; 10 µM) was 0.846 GR. It also gave a GR value (THZ1; 0.0001 µM) of 1.02 GR, a GR value (THZ1; 0.0003162 µM) of 0.945 GR and a GR value (THZ1; 0.001 µM) of 1.02 GR. For the same cell line, the GR value (THZ1; 0.003162 µM) was 0.734 GR, the GR value (THZ1; 0.01 µM) was 0.855 GR and the GR value (THZ1; 0.03162 µM) was -0.061 GR. It also gave a GR value (THZ1; 0.1 µM) of 0.0851 GR, a GR value (THZ1; 0.3162 µM) of 0.0061 GR and a GR value (THZ1; 1 µM) of -0.203 GR. For the same cell line, the GR value ([3]; 0.001 µM) was 0.941 GR, the GR value ([3]; 0.003162 µM) was 0.871 GR and the GR value ([3]; 0.01 µM) was 0.877 GR. The GR value ([3]; 0.03162 µM) was 0.874 GR, the GR value ([3]; 0.1 µM) was 0.742 GR and the GR value ([3]; 0.3162 µM) was 0.691 GR. It also gave a GR value ([3]; 1 µM) of 0.613 GR, a GR value ([3]; 3.162 µM) of 0.595 GR and a GR value ([3]; 10 µM) of 0.5 GR. The GR value ([4]; 0.0003162 µM) was 1 GR, the GR value ([4]; 0.001 µM) was 1.03 GR and the GR value ([4]; 0.003162 µM) was 0.956 GR. For the same cell line, the GR value ([4]; 0.01 µM) was 0.996 GR, the GR value ([4]; 0.03162 µM) was 0.96 GR and the GR value ([4]; 0.1 µM) was 0.923 GR. It also gave a GR value ([4]; 0.3162 µM) of 0.781 GR, a GR value ([4]; 1 µM) of 0.86 GR and a GR value ([4]; 3.162 µM) of 0.754 GR. It also gave a GR value (THZ531; 0.0001 µM) of 1.06 GR, a GR value (THZ531; 0.0003162 µM) of 1 GR and a GR value (THZ531; 0.001 µM) of 1.02 GR. For the same cell line, the GR value (THZ531; 0.003162 µM) was 1.02 GR, the GR value (THZ531; 0.01 µM) was 1.03 GR and the GR value (THZ531; 0.03162 µM) was 1.06 GR. For the same cell line, the GR value (THZ531; 0.1 µM) was 0.851 GR, the GR value (THZ531; 0.3162 µM) was -0.187 GR and the GR value (THZ531; 1 µM) was 0.19 GR. It also gave a GR value (YKL-5-124; 0.001 µM) of 0.7 GR, a GR value (YKL-5-124; 0.003162 µM) of 0.648 GR and a GR value (YKL-5-124; 0.01 µM) of 0.517 GR. For the same cell line, the GR value (YKL-5-124; 0.03162 µM) was 0.469 GR, the GR value (YKL-5-124; 0.1 µM) was 0.434 GR and the GR value (YKL-5-124; 0.3162 µM) was 0.474 GR. For the same cell line, the GR value (YKL-5-124; 1 µM) was 0.496 GR, the GR value (YKL-5-124; 3.162 µM) was 0.231 GR and the GR value (YKL-5-124; 10 µM) was -0.008 GR. For the same cell line, the GR value (Flavopiridol; 0.0001 µM) was 1 GR, the GR value (Flavopiridol; 0.0003162 µM) was 0.883 GR and the GR value (Flavopiridol; 0.001 µM) was 0.776 GR. The GR value (Flavopiridol; 0.003162 µM) was 0.933 GR, the GR value (Flavopiridol; 0.01 µM) was 0.845 GR and the GR value (Flavopiridol; 0.03162 µM) was 0.58 GR. For the same cell line, the GR value (Flavopiridol; 0.1 µM) was 0.632 GR, the GR value (Flavopiridol; 0.3162 µM) was 0.458 GR and the GR value (Flavopiridol; 1 µM) was 0.132 GR. The GR value ([5]; 0.0001 µM) was 1.06 GR, the GR value ([5]; 0.0003162 µM) was 1.2 GR and the GR value ([5]; 0.001 µM) was 1.04 GR. For the same cell line, the GR value ([5]; 0.003162 µM) was 0.999 GR, the GR value ([5]; 0.01 µM) was 0.955 GR and the GR value ([5]; 0.03162 µM) was 0.387 GR. The GR value ([5]; 0.1 µM) was 0.227 GR, the GR value ([5]; 0.3162 µM) was 0.203 GR and the GR value ([5]; 1 µM) was 0.171 GR.
